Here are results for 17 compounds from US12060349B2, “Glucosylceramide synthase inhibitors” (Genzyme Corporation, priority 2012, dated 2024).

The target in assay [1] is T1, glucosylceramide synthase (Homo sapiens, UniProt Q16739).
T1 construct: Microsomes were isolated from A375 human melanoma cells; endogenous in cells; host or cells: A375 human melanoma cells (microsomal fraction, 100,000 g pellet)
T1 sequence (Q16739 1-394): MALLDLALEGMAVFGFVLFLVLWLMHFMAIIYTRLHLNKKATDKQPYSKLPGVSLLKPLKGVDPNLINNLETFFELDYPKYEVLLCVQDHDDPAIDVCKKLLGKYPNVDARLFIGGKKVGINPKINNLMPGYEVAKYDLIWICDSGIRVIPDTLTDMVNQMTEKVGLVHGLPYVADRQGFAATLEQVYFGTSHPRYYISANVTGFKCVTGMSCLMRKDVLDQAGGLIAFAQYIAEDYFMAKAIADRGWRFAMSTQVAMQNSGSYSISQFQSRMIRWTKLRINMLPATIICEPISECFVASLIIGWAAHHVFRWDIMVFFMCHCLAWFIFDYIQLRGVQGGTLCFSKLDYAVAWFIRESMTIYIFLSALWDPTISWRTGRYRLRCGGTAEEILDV
Description: microsomal assay measuring conversion of ceramide to glucosylceramide by HPLC (GCS IC50). It counts as biochemical. To be noted: concentration causing 50% inhibition of glucosylceramide synthase activity. The procedure, abridged:
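Microsomal preparation assayed for glucosylceramide synthase by direct HPLC measurement of ceramide conversion to glucosylceramide. GCS IC50 is the compound concentration giving 50% inhibition of enzyme activity.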

Assay [2] relates to GM3 expression on the cell surface, B16 mouse melanoma cells. The assay is described as follows: cell based phenotypic assay, cell surface GM3 by antibody mediated immunofluorescence, B16 (GM3 B16 IC50). Particulars: 50% inhibition of GM3 expression on the cell surface. The procedure, abridged: (§1)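 Two melanoma lines, mouse B16 and human C32, were treated and surface GM3 quantified by antibody immunofluorescence for IC50. A parallel viability readout gives the concentration killing 50% of cells, with values over 10 indicating no cell death.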

Assay [3] relates to GM3 expression on the cell surface, C32 human melanoma cells. The assay is described as follows: cell based phenotypic assay, cell surface GM3 by antibody mediated immunofluorescence, C32 (GM3 C32 IC50). To be noted: 50% inhibition of GM3 expression on the cell surface. In short, it runs like this: as §1
In the next assay the test system is B16 mouse melanoma cells. The assay is described as follows: cell viability in the B16 cell-based assay (Viability, B16 IC50). The procedure, abridged: (§2)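 Both lines undergo the phenotypic GM3 assay, and viability is recorded from that same cell-based run.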
Another assay concerns C32 human melanoma cells. The assay is described as follows: cell viability in the C32 cell-based assay (Viability, C32 IC50). Particulars: concentration causing 50% cell death, values greater than 10 represent a lack of cell death. In short, it runs like this: as §2
The mark [4] stands for this setting: Mus musculus, B16 mouse melanoma cells, read-out: GM3 B16 IC50.
Setting [5] is: Homo sapiens, C32 human melanoma cells, read-out: GM3 C32 IC50.
[6] abbreviates: Mus musculus, B16, B16 cells, concentration causing 50% cell death, values greater than 10 represent a lack of cell death, read-out: Viability, B16 IC50.
Where [7] appears, read: Homo sapiens, C32, C32 cells, read-out: Viability, C32 IC50.
[8] abbreviates: Mus musculus, read-out: GM3 B16 IC50, B16 mouse melanoma cells.
Setting [9] is: Homo sapiens, read-out: GM3 C32 IC50, C32 human melanoma cells.
The mark [10] stands for this setting: Mus musculus, B16, read-out: Viability, B16 IC50.
[11] abbreviates: Homo sapiens, C32, read-out: Viability, C32 IC50, C32 cells.

Like-named read-outs stand apart in the source and are kept apart here. Where only a bound is given, the exact number is not on record here.

`COCCCOc1ccc(-c2ccc(C3(NC(=O)NC4(C)CN5CCC4CC5)CC3)cc2)cc1` (stereo not shown) [Example 176, 1-(1-(4′-(3-Methoxypropoxy)-[1,1′-biphenyl]-4-yl)cyclopropyl)-3-(3-methylquinuclidin-3-yl)urea]: the IC50 in assay [1] was 4.1 nM; in assay [2] (setting [4]), 22 nM; in assay [3] (setting [5]) it was 1.47 nM; with B16 mouse melanoma cells (setting [6]), ≥ 10000 nM; in the assay with C32 human melanoma cells (setting [7]), ≥ 10000 nM.
As for `CN(C)C(=O)c1cccc(Oc2cccc(C(C)(C)NC(=O)NC3(C)CN4CCC3CC4)c2)c1` (stereo not shown) [Example 289, N,N-Dimethyl-3-(3-(2-(3-(3-methylquinuclidin-3-yl)ureido)propan-2-yl)phenoxy)benzamide], the IC50 in assay [1] was 104 nM; in assay [2] (setting [4]), 1410 nM; in assay [3] (setting [5]), 91.7 nM; in the assay on B16 mouse melanoma cells (setting [6]), 9260 nM; in the assay on C32 human melanoma cells (setting [7]), ≥ 10000 nM.
Taken in the same sequence, the figures for `CCC1(NC(=O)NC(C)(C)c2ccc(-c3ccc(S(=O)(=O)CCC(C)(C)C)cc3)cc2)CN2CCC1CC2` (stereo not shown) [Example 247, 1-(2-(4′-((3,3-Dimethylbutyl)sulfonyl)-[1,1′-biphenyl]-4-yl)propan-2-yl)-3-(3-ethylquinuclidin-3-yl)urea] were 1.66 nM, 4.28 nM, 0.396 nM, 6640 nM and 1000 nM.
Consider `CC(C)(NC(=O)OC1CCN2CCC1CC2)c1ccc(-c2ccc(S(=O)(=O)CC3CC3)cc2)cc1` (stereo not shown) [Example 241, 1-Azabicyclo[3.2.2]nonan-4-yl (2-(4′-((cyclopropylmethyl)sulfonyl)-[1,1′-biphenyl]-4-yl)propan-2-yl)carbamate], for which the concentration for half-maximal inhibition (IC50) is 4.23 nM in assay [1]; 12.2 nM in assay [2] (setting [4]); 1.44 nM in assay [3] (setting [5]); ≥ 10000 nM with B16 mouse melanoma cells (setting [6]); 3160 nM in the assay with C32 human melanoma cells (setting [7]).
On to `O=C(OC1CCN2CCC1CC2)N1CCN(c2cccc(-c3ccccc3)c2)CC1` (stereo not shown) [Example 19, 1-Azabicyclo[3.2.2]nonan-4-yl 4-([1,1′-biphenyl]-3-yl)piperazine-1-carboxylate], for which the IC50 in assay [1] is 2670 nM; in assay [2] (setting [4]) it was 1480 nM; in assay [3] (setting [5]) it was 456 nM; in the assay with B16 mouse melanoma cells (setting [6]), 7090 nM; with C32 human melanoma cells (setting [7]) it was 9090 nM.
Regarding `CC(C)(C)CCS(=O)(=O)c1ccc(C#CC(C)(C)NC(=O)NC2(C)CCN3CCC2CC3)cc1` (stereo not shown) [Example 336, 1-(4-(4-((3,3-Dimethylbutyl)sulfonyl)phenyl)-2-methylbut-3-yn-2-yl)-3-(4-methyl-1-azabicyclo[3.2.2]nonan-4-yl)urea], the IC50 in assay [1] was 1.2 nM; in assay [2] (setting [4]), 38.8 nM; in assay [3] (setting [5]), 0.902 nM; in the assay with B16 mouse melanoma cells (setting [6]), ≥ 10000 nM; with C32 human melanoma cells (setting [7]), ≥ 10000 nM.
`CC1CN(C(=O)OC2CCN3CCC2CC3)CCN1c1nccc(-c2ccccc2)n1` (stereo not shown) [Example 154, 1-Azabicyclo[3.2.2]nonan-4-yl 3-methyl-4-(4-phenylpyrimidin-2-yl)piperazine-1-carboxylate]: the IC50 amounted to 57 nM in assay [1]; 1930 nM in assay [2] (setting [4]); 16.5 nM in assay [3] (setting [5]); 2840 nM in the assay with B16 mouse melanoma cells (setting [6]); 1000 nM in the assay on C32 human melanoma cells (setting [7]).
For the compound `CC1(NC(=O)C2(F)CCN(c3nccc(-c4ccc(OCCF)cc4)n3)CC2)CCN2CCC1CC2` (stereo not shown) [Example 90, 4-Fluoro-1-(4-(4-(2-fluoroethoxy)phenyl)pyrimidin-2-yl)-N-(4-methyl-1-azabicyclo[3.2.2]nonan-4-yl)piperidine-4-carboxamide], the 50% inhibitory concentration (IC50) in assay [1] stood at 2.26 nM; in assay [2] (setting [4]), 13.4 nM; in assay [3] (setting [5]), 0.0953 nM; in the assay on B16 mouse melanoma cells (setting [6]), 3060 nM; in the assay with C32 human melanoma cells (setting [7]) it was 215 nM.
Turning to “4-(4-(4-Fluorophenyl)pyrimidin-2-yl)-3-methyl-N-(4-methyl-1-azabicyclo[3.2.2]nonan-4-yl)piperazine-1-carboxamide [Example 146]”, the 50% inhibitory concentration (IC50) in assay [1] was determined as 16.6 nM; in assay [2] (B16 mouse melanoma cells, read-out: GM3 B16 IC50), 110 nM; in assay [3] (C32 human melanoma cells, read-out: GM3 C32 IC50) it was 0.559 nM; in the assay on B16 mouse melanoma cells (B16 cells, concentration causing 50% cell death, values greater than 10 represent a lack of cell death, read-out: Viability, B16 IC50), 6370 nM; in the assay on C32 human melanoma cells (C32 cells, read-out: Viability, C32 IC50), 1000 nM.
On to `COCCOc1ccc(-c2cccc(C(C)(C)NC(=O)OC3CN4CCC3CC4)c2)cc1` (stereo not shown) [Example 170, Quinuclidin-3-yl (2-(4′-(2-methoxyethoxy)-[1,1′-biphenyl]-3-yl)propan-2-yl)carbamate], for which the IC50 in assay [1] was 26.7 nM; in assay [2] (setting [8]) it was 29.5 nM; in assay [3] (setting [9]) it was 4.94 nM; in the assay on B16 mouse melanoma cells (setting [10]) it was ≥ 10000 nM; with C32 human melanoma cells (setting [11]), ≥ 10000 nM.
For the compound `COCCOc1ccc(-c2ccc(C(C)(C)NC(=O)NC3(C)CCN4CCC3CC4)cc2)cc1` (stereo not shown) [Example 160, 1-(2-(4′-(2-Methoxyethoxy)-[1,1′-biphenyl]-4-yl)propan-2-yl)-3-(4-methyl-1-azabicyclo[3.2.2]nonan-4-yl)urea], the half-maximal inhibitory concentration (IC50) in assay [1] came out at 3.91 nM; in assay [2] (setting [4]), 1.9 nM; in assay [3] (setting [5]), 0.544 nM; in the assay on B16 mouse melanoma cells (setting [6]) it was 1000 nM; with C32 human melanoma cells (setting [7]), 1000 nM.
`COC1(C(=O)NC2(C)CCN3CCC2CC3)CCN(c2nccc(-c3ccc(F)cc3)n2)CC1` (stereo not shown) [Example 100, 1-(4-(4-Fluorophenyl)pyrimidin-2-yl)-4-methoxy-N-(4-methyl-1-azabicyclo[3.2.2]nonan-4-yl)piperidine-4-carboxamide]: the IC50 was determined as 3.68 nM in assay [1]; 26.5 nM in assay [2] (setting [4]); 0.109 nM in assay [3] (setting [5]); 1900 nM in the assay with B16 mouse melanoma cells (setting [6]); 1000 nM in the assay with C32 human melanoma cells (setting [7]).
On to `COCCOc1ccc(-c2ccc(C(C)(C)NC(=O)OC3CN4CCC3CC4)cc2)cn1` (stereo not shown) [Example 307, Quinuclidin-3-yl 2-(4-(6-(2-methoxyethoxy)pyridin-3-yl)phenyl)propan-2-ylcarbamate], for which the IC50 in assay [1] was 735 nM; in assay [2] (setting [8]), 4340 nM; in assay [3] (setting [9]), 97.2 nM; with B16 mouse melanoma cells (setting [10]), ≥ 10000 nM; in the assay with C32 human melanoma cells (setting [11]), ≥ 10000 nM.
For `COCc1ccc(-c2ncnc(N3CCN(C(=O)NC4(C)CCN5CCC4CC5)CC3C(C)C)n2)cc1` (stereo not shown) [Example 151, 3-Isopropyl-4-(4-(4-(methoxymethyl)phenyl)-1,3,5-triazin-2-yl)-N-(4-methyl-1-azabicyclo[3.2.2]nonan-4-yl)piperazine-1-carboxamide], the IC50 in assay [1] came out at 324 nM; in assay [2] (setting [4]), 1820 nM; in assay [3] (setting [5]), 95.6 nM; in the assay on B16 mouse melanoma cells (setting [6]) it was 9840 nM; with C32 human melanoma cells (setting [7]) it was 1000 nM.
Take `CC(C)(NC(=O)OC1CN2CCC1CC2)c1ccc(-c2ccc(C(=O)N3CCC(F)(F)CC3)cc2)cc1` (stereo not shown) [Example 270, Quinuclidin-3-yl 2-(4′-(4,4-difluoropiperidine-1-carbonyl)biphenyl-4-yl)propan-2-ylcarbamate]: the 50% inhibitory concentration (IC50) in assay [1] was 25 nM; in assay [2] (setting [8]) it was 67 nM; in assay [3] (setting [9]), 3.56 nM; in the assay on B16 mouse melanoma cells (setting [10]), ≥ 10000 nM; in the assay on C32 human melanoma cells (setting [11]) it was 1000 nM.
Turning to `COCCCOc1ccc(-c2nc(C(C)(C)NC(=O)OC3CN4CCC3CC4)cs2)cc1` (stereo not shown) [Example 340, Quinuclidin-3-yl (2-(2-(4-(3-methoxypropoxy)phenyl)thiazol-4-yl)-propan-2-yl)carbamate], the IC50 in assay [1] is 170 nM; in assay [2] (setting [8]) it was 197 nM; in assay [3] (setting [9]), 42.6 nM; in the assay on B16 mouse melanoma cells (setting [10]) it was ≥ 10000 nM; in the assay with C32 human melanoma cells (setting [11]) it was ≥ 10000 nM.
Regarding `COCCOCc1ccc(-c2nc(N3CCC(F)(C(=O)NC4(C)CCN5CCC4CC5)CC3)ncc2F)cc1` (stereo not shown) [Example 77, 4-Fluoro-1-(5-fluoro-4-(4-((2-methoxyethoxy)methyl)phenyl)pyrimidin-2-yl)-N-(4-methyl-1-azabicyclo[3.2.2]nonan-4-yl)piperidine-4-carboxamide], the half-inhibitory concentration (IC50) in assay [1] amounted to 1.67 nM; in assay [2] (setting [4]), 86.3 nM; in assay [3] (setting [5]), 0.316 nM; with B16 mouse melanoma cells (setting [6]), 3760 nM; in the assay on C32 human melanoma cells (setting [7]), 316 nM.
